The values that follow come from patent publication US9447044B2, “Thioaryl derivatives as GPR120 agonists” (LG LIFE SCIENCES LTD., priority 2012, dated 2016).

Molecules are shown by their SMILES.

The target of one experiment is T1, hGPR120 (Homo sapiens, UniProt Q5NUL3).
T1 construct: expressed in transfected cells; host or cells: CHO-K1
T1 sequence (Q5NUL3 1-361): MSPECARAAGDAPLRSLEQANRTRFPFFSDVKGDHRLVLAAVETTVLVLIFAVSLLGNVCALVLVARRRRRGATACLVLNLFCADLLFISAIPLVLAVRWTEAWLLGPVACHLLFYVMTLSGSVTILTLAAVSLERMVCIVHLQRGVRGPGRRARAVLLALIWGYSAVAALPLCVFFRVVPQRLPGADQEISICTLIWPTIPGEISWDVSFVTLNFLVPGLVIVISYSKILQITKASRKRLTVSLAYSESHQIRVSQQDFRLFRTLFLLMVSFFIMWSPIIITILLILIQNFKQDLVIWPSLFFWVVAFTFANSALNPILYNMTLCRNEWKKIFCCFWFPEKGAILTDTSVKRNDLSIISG
Briefly: Measurement of activity of GPR120 agonist (cell-based assay), calcium fluorescence. The following applies: CHO-K1 cells expressing Ga16 and hGPR120; Calcium 5 dye fluorescence; activity class. Summed up: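 CHO-K1 cells co-expressing Gα16 and hGPR120, loaded with Calcium 5 dye for 1 h at 37° C, received serially diluted agonists (final 0.5% DMSO). Fluorescence (Ex 485/Em 525 nm) was expressed as relative percent over 0.1% DMSO-only wells; activity binned as A >20 μM, B 20–2 μM, C 2–0.2 μM, D <0.2 μM.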
The term EC50 denotes the concentration giving half of the maximal effect. Take `O=C(O)CCc1ccc(OCc2cccnc2SC2CCC2)c(F)c1` [Example 145, 3-[4-(2-cyclobutylsulfanyl-pyridin-3-ylmethoxy)-3-fluoro-phenyl]-propionic acid]: the EC50 was < 200 nM. For the compound `O=C(O)CCc1ccc(OCc2cccnc2SC2CCCC2)c(F)c1` [Example 146, 3-[4-(2-cyclopentylsulfanyl-pyridin-3-ylmethoxy)-3-fluoro-phenyl]-propionic acid], the EC50 is < 200 nM.

For the compound `O=C(O)CCc1ccc(OCc2cccc(SC3CCC3)n2)c(F)c1` [Example 148, 3-[4-(6-cyclobutylsulfanyl-pyridin-2-ylmethoxy)-3-fluoro-phenyl]-propionic acid], the EC50 is < 200 nM.

With `CC(C)Sc1cccc(COc2ccc(CCC(=O)O)cc2F)n1` [Example 149, 3-[3-fluoro-4-(6-isopropylsulfanyl-pyridin-2-ylmethoxy)-phenyl]-propionic acid], the EC50 is < 200 nM. With `O=C(O)CCc1ccc(OCc2cccc(SC3CCCC3)n2)c(F)c1` [Example 150, 3-[4-(6-cyclopentylsulfanyl-pyridin-2-ylmethoxy)-3-fluoro-phenyl]-propionic acid], the EC50 is < 200 nM. Consider `O=C(O)CCc1ccc(OCc2cccc(SCC3CC3)n2)c(F)c1` [Example 151, 3-[4-(6-cyclopropylmethylsulfanyl-pyridin-2-ylmethoxy)-3-fluoro-phenyl]-propionic acid], for which the half-maximal effective concentration (EC50) is < 200 nM. In the case of `CC(C)Sc1cccc(COc2c(F)cc(C3CC3C(=O)O)cc2F)n1` (centres unmarked) [Example 152, 2-[3,5-difluoro-4-(6-isopropylsulfanyl-pyridin-2-ylmethoxy)-phenyl]-cyclopropane carboxylic acid], the EC50 was < 200 nM.

`O=C(O)C1CC1c1cc(F)c(OCc2cccc(SCC3CC3)n2)c(F)c1` (centres unmarked) [Example 153, 2-[4-(6-cyclopropylmethylsulfanyl-pyridin-2-ylmethoxy)-3,5-difluoro-phenyl]-cyclopropane carboxylic acid]: the concentration giving a half-maximal response (EC50) is < 200 nM. As for `O=C(O)C1CC1c1cc(F)c(OCc2cccc(SC3CCC3)n2)c(F)c1` (centres unmarked) [Example 155, 2-[4-(6-cyclobutylsulfanyl-pyridin-2-ylmethoxy)-3,5-difluoro-phenyl]-cyclopropane carboxylic acid], the concentration giving a half-maximal response (EC50) was < 200 nM. `O=C(O)CCc1ccc(OCc2cccnc2SCC2CC2)c(Cl)c1` [Example 157, 3-[3-chloro-4-(2-cyclopropylmethylsulfanyl-pyridin-3-ylmethoxy)-phenyl]-propionic acid]: the EC50 is < 200 nM. For `O=C(O)CCc1ccc(OCc2cccnc2SC2CCC2)c(Cl)c1` [Example 158, 3-[3-chloro-4-(2-cyclobutylsulfanyl-pyridin-3-ylmethoxy)-phenyl]-propionic acid], the concentration for a half-maximal effect (EC50) was < 200 nM. On to `O=C(O)CCc1ccc(OCc2cccc(SC3CCC3)n2)c(Cl)c1` [Example 159, 3-[3-chloro-4-(6-cyclobutylsulfanyl-pyridin-2-ylmethoxy)-phenyl]-propionic acid], for which the EC50 was < 200 nM. Turning to `Cc1ccc(COc2ccc(CCC(=O)O)cc2Cl)c(SC2CCCC2)n1` [Example 161, 3-[3-chloro-4-(2-cyclopentylsulfanyl-6-methyl-pyridin-3-ylmethoxy)-phenyl]-propionic acid], the 50% effective concentration (EC50) was 200 to 2000 nM. `CC(C)Sc1ncccc1COc1ccc(C2CC2C(=O)O)cc1F` (centres unmarked) [Example 162, 2-[3-fluoro-4-(2-isopropylsulfanyl-pyridin-3-ylmethoxy)-phenyl]-cyclopropane carboxylic acid]: the EC50 is < 200 nM.

For `O=C(O)C1CC1c1ccc(OCc2cccc(SCC3CC3)n2)c(F)c1` (centres unmarked) [Example 170, 2-[4-(6-cyclopropylmethylsulfanyl-pyridin-2-ylmethoxy)-3-fluoro-phenyl]-cyclopropane carboxylic acid], the EC50 was < 200 nM.

On to `O=C(O)CCc1ccc(NCc2cccnc2SC2CCCC2)cc1` [Example 171, 3-{4-[(2-cyclopentylsulfanyl-pyridin-3-ylmethyl)-amino]-phenyl]-propionic acid], for which the 50% effective concentration (EC50) was 200 to 2000 nM.

Take `O=C(O)CCc1ccc(NCc2cccc(SC3CCCC3)n2)cc1` [Example 172, 3-{4-[(6-cyclopentylsulfanyl-pyridin-2-ylmethyl)-amino]-phenyl]-propionic acid]: the EC50 is 2000 to 20000 nM. Still for that read-out and setting: the value for `O=C(O)CCc1ccc(OCc2cccnc2SC2CCCC2)cc1F` [Example 173] was < 200 nM. Take `O=C(O)C1CC1c1ccc(OCc2cccnc2SC2CCCC2)cc1F` (centres unmarked) [Example 174]: the half-maximal effective concentration (EC50) was in the range of 200 to 2000 nM. `O=C(O)CCc1ccc(OCc2cccnc2SC2CCC2)cc1F` [Example 175]: the concentration giving a half-maximal response (EC50) lay in the range of 200 to 2000 nM. For `O=C(O)CCc1ccc(OCc2cccc(SC3CCCC3)n2)cc1F` [Example 177], the EC50 was 200 to 2000 nM. As to `O=C(O)CCc1ccc(OCc2cccnc2SCC2CC2)cc1F` [Example 178], the concentration for a half-maximal effect (EC50) was 200 to 2000 nM. In the case of `O=C(O)CCc1ccc(OCc2cccc(SCC3CC3)n2)cc1F` [Example 179], the EC50 lay within 200 to 2000 nM. With `O=C(O)CCc1ccc(OCc2cccnc2SC2CCC2)cc1` [Example 180], the EC50 was in the range of 200 to 2000 nM. With `O=C(O)CCc1ccc(OCc2cccc(SC3CCC3)n2)cc1` [Example 181], the concentration for a half-maximal effect (EC50) was < 200 nM. `O=C(O)CCc1ccc(OCc2cccnc2SCC2CC2)cc1` [Example 182]: the concentration for a half-maximal effect (EC50) was < 200 nM. Still for that read-out and setting: with `O=C(O)CCc1ccc(OCc2cccc(SCC3CC3)n2)cc1` [Example 183] the figure was 200 to 2000 nM; with `Cc1ccc(COc2ccc(CCC(=O)O)cc2)c(SC2CCCC2)n1` [Example 184], 200 to 2000 nM.

The experiment is the same for the next values; noted with them: CHO-K1 cells expressing Ga16 and hGPR120; Calcium 5 dye fluorescence; numeric value.
`O=C(O)CCc1ccc(OCc2cccnc2SCC2CC2)c(F)c1` [Example 147, 3-[4-(2-cyclopropylmethylsulfanyl-pyridin-3-ylmethoxy)-3-fluoro-phenyl]-propionic acid]: the EC50 was determined as 54 nM.

Consider `Cc1ccc(COc2ccc(CCC(=O)O)cc2Cl)c(SC(C)C)n1` [Example 160, 3-[3-chloro-4-(2-isopropylsulfanyl-6-methyl-pyridin-3-ylmethoxy)-phenyl]-propionic acid], for which the half-maximal effective concentration (EC50) came to 202 nM. As for `O=C(O)CCc1ccc(OCc2cccc(SC3CCC3)n2)cc1F` [Example 176], the concentration for a half-maximal effect (EC50) turned out to be 176 nM. As for `Cc1ccc(COc2ccc(CCC(=O)O)cc2)c(SC(C)C)n1` [Example 185], the EC50 was 441 nM.
